In patent US20140171417A1, “TRICYCLIC COMPOUNDS” (NOVARTIS AG, priority 2012, published 2014):

Target: T1, CFTR (Homo sapiens, UniProt P13569)
T1 construct: expressed in transfected cells
Assay: IonWorks Quattro assay (CFTR Inhibitor Assay), whole-cell planar patch clamp
Format: cell-based
Conditions: inward current (−100 mV); CHO cells stably expressing WT-CFTR; CFTR activated by 10 μM forskolin; test compound incubated 10 min
Excerpt: CFTR activity can be quantified by electrophysiology methods, using the whole-cell configuration of the patch clamp technique (Hamill O, Marty A, Neher E, Sakmann B and Sigworth F. ‘Improved patch-clamp techniques for high resolution current recording from cells and cell-free membrane patches.’ Pflugers Archive 1981 391: 85-100). This assay directly measures the currents associated with chloride flow through CFTR channels whilst either maintaining or adjusting the transmembrane voltage. This assay can use either single glass micropipettes or parallel planar arrays to measure CFTR activity from native or recombinant cell systems. Currents measured using parallel planar arrays can be quantified using an appropriately equipped instrument such as the IonWorks Quattro (Molecular Devices Corporation, Sunnyvale, Calif.). The Quattro system can measure CFTR currents from either a single cell per recording well (HT configuration) or alternatively from a population of 64 cells per well (Population Patch Clamp PPC) (Finkel A, Wittel A, Yang N, Handran S, Hughes J, Costantin J. ‘Population patch clamp improves data consistency and success rates in the measurement of ionic currents.’ J Biomol Screen. 2006 August; 11 (5):488-96).
Chinese hamster ovary (CHO) cells stably expressing WT-CFTR channels were used for the IonWorks Quattro experiments. Cells were maintained at 37° C. in 5% v/v CO2 at 100% humidity in MEM alpha medium supplemented with 10% (v/v) FCS, 100 U/mL Penicillin/Streptomycin, and 100 μg/L methotrexate. For experiments, cells were grown in 225 cm^2 tissue culture flasks until almost confluent. Cells were removed from the flask using trypsin-EDTA and resuspended in extracellular recording solution for immediate experimentation.
Cells, at a density of 1.5-2 million per mL, were placed on the Quattro system, added to the planar patch plate and seals allowed to establish for 5-10 mins. After assessing seal resistances (typically >50 MΩ), whole-cell access was obtained by perforation with 100 μg/mL amphotericin B. Baseline currents were measured by a pre-compound scan obtained by application of a voltage ramp from −100 to +100 mV. CFTR was activated by the addition of 10 μM forskolin to each of the 384 wells of the patch plate. After 5 min incubation the post-compound 1 currents were measured, again by application of a voltage ramp from −100 to +100 mV. Test compounds, diluted from 10 mM stocks in DMSO in extracellular solution were then added to the patch plate and were incubated for a further 10 min. The post-compound 2 currents were measured by the application of the same voltage ramp from −100 to +100 mV. The inhibition of CFTR was determined from the difference in current between the forskolin addition (post-compound 1) and the test compound (post-compound 2). This was determined at both −100 mV and +100 mV which represents the inward and outward current respectively.
Extracellular solution (ECS): 145 mM NaCl, 4 mM CsCl, 5 mM D-glucose, 10 mM TES, 1 mM CaCl2, 1 mM MgCl2, pH 7.4 NaOH
Intracellular solution (ICS): 113 mM L-Aspartic acid, 113 mM CsOH, 27 mM CsCl, 1 mM NaCl, 1 mM MgCl2, 1 mM EGTA, 10 mM TES. pH 7.2 with CsOH. Filter sterilized before use.

T1 sequence (P13569 whole entry): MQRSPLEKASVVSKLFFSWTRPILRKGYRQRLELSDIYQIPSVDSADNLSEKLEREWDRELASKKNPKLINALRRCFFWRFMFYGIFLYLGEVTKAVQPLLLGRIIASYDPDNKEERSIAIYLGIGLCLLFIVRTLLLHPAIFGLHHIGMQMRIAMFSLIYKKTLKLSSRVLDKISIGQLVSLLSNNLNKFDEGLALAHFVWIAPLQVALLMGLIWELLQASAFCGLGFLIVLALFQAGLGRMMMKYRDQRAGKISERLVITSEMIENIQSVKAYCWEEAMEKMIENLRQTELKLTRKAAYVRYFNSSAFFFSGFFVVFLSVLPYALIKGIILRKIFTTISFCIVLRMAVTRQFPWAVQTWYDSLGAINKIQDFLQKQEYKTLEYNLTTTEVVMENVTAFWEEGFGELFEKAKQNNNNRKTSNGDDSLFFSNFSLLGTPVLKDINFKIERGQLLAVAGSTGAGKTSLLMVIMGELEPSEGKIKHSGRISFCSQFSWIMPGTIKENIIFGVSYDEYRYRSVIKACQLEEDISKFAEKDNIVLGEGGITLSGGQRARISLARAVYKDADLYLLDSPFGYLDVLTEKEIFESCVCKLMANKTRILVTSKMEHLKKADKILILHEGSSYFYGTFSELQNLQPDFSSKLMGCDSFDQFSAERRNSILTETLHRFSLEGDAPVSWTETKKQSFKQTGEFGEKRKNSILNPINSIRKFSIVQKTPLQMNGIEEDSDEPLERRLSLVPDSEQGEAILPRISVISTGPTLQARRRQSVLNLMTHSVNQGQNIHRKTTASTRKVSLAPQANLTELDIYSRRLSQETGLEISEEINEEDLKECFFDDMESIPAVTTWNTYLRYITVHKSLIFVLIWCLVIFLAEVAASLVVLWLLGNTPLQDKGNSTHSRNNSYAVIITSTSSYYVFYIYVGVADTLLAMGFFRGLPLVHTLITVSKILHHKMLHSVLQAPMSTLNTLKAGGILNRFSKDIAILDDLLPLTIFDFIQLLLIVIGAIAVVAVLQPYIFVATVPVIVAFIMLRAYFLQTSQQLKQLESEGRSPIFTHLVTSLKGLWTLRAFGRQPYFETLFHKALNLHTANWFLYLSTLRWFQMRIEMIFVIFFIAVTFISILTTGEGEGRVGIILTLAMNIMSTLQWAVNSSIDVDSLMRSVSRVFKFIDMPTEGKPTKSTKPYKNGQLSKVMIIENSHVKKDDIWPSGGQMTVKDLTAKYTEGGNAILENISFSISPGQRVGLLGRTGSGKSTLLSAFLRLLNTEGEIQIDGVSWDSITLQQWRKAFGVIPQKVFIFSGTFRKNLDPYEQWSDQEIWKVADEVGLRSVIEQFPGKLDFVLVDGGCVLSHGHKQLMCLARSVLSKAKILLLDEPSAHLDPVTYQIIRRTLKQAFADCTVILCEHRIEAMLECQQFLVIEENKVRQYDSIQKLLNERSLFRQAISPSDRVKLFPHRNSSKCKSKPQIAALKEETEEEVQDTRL

Structure (SMILES) | IC50
CC(=O)NC[C@H]1Cn2c(-c3nc(C)cs3)c3c(=O)n(C)c(=O)n(C)c3c2[C@H](c2ccc(Cl)o2)S1 (single isomer, unassigned) [Example 26.3a, N-((10-(5-chlorofuran-2-yl)-1,3-dimethyl-5-(4-methylthiazol-2-yl)-2,4-dioxo-2,3,4,7,8,10-hexahydro-1H-pyrimido[4′,5′:3,4]pyrrolo[2,1-c][1,4]thiazin-8-yl)methyl)acetamide] | 0.45 µM
Cc1ccc(C2SCCn3c(-c4ccccc4)c4c(=O)n(C)c(=O)n(C)c4c32)o1 (single isomer, unassigned) [Example 1.2, 1,3-Dimethyl-10-(5-methylfuran-2-yl)-5-phenyl-7,8-dihydro-1H-pyrimido[4′,5′:3,4]pyrrolo[2,1-c][1,4]thiazine-2,4(3H,10H)-dione] | 0.79 µM
Cc1csc(-c2c3c(=O)n(C)c(=O)n(C)c3c3n2C[C@@H](CN2CCCC2=O)S[C@@H]3c2ccc(Cl)o2)n1 (single isomer, unassigned) [Example 30.1a, 10-(5-chlorofuran-2-yl)-1,3-dimethyl-5-(4-methylthiazol-2-yl)-8-((2-oxopyrrolidin-1-yl)methyl)-7,8-dihydro-1H-pyrimido[4′,5′:3,4]pyrrolo[2,1-c][1,4]thiazine-2,4(3H,10H)-dione] | 0.25 µM
Cc1ccc([C@@H]2CC[C@@H](Cn3nccn3)n3c(-c4ccccc4)c4c(=O)n(C)c(=O)n(C)c4c32)o1 (single isomer, unassigned) [Example 24] | 1.74 µM
COCC(=O)NC[C@H]1Cn2c(-c3nc(C)cs3)c3c(=O)n(C)c(=O)n(C)c3c2[C@H](c2ccc(Cl)o2)S1 (single isomer, unassigned) [Example 26.1a, N-((10-(5-chlorofuran-2-yl)-1,3-dimethyl-5-(4-methylthiazol-2-yl)-2,4-dioxo-2,3,4,7,8,10-hexahydro-1H-pyrimido[4′,5′:3,4]pyrrolo[2,1-c][1,4]thiazin-8-yl)methyl)-2-methoxyacetamide] | 0.23 µM
C=C1Cn2c(-c3cccc(F)c3)c3c(=O)n(C)c(=O)n(C)c3c2C1c1nc(Cl)cs1 (racemic) [Example 29, 9-(4-Chlorothiazol-2-yl)-5-(3-fluorophenyl)-1,3-dimethyl-8-methylene-8,9-dihydro-1H-pyrimido[4,5-a]pyrrolizine-2,4(3H,7H)-dione] | 0.44 µM
Cc1nc(-c2c3c(=O)n(C)c(=O)n(C)c3c3n2CCC[C@H]3c2nc(Cl)cs2)cs1 (single isomer, unassigned) [Example 13.3a, 10-(4-chlorothiazol-2-yl)-1,3-dimethyl-5-(2-methylthiazol-4-yl)-7,8,9,10-tetrahydropyrimido[4,5-a]indolizine-2,4(1H,3H)-dione] | 0.09 µM
Cn1ccc(-c2c3c(=O)n(C)c(=O)n(C)c3c3n2CCCC3c2nc(Cl)cs2)n1 (racemic) [Example 22, 10-(4-Chlorothiazol-2-yl)-1,3-dimethyl-5-(1-methyl-1H-pyrazol-3-yl)-7,8,9,10-tetrahydropyrimido[4,5-a]indolizine-2,4(1H,3H)-dione] | 0.47 µM
Cn1c(=O)c2c(-c3ccccc3)n3c(c2n(C)c1=O)[C@H](c1ccc(Cl)o1)SCC3 [Example 1.1.1, (R)-10-(5-chlorofuran-2-yl)-1,3-dimethyl-5-phenyl-7,8-dihydro-1H-pyrimido[4′,5′:3,4]pyrrolo[2,1-c][1,4]thiazine-2,4(3H,10H)-dione] | 0.63 µM
Cn1c(=O)c2c(-c3nc(C(=O)O)cs3)n3c(c2n(C)c1=O)C(c1ccc(Cl)o1)SCC3 (racemic) [Example 25, 2-(10-(5-Chlorofuran-2-yl)-1,3-dimethyl-2,4-dioxo-2,3,4,7,8,10-hexahydro-1H-pyrimido[4′,5′:3,4]pyrrolo[2,1-c][1,4]thiazin-5-yl)thiazole-4-carboxylic acid] | 4.84 µM
Cc1csc(-c2c3c(=O)n(C)c(=O)n(C)c3c3n2C[C@H](CO)S[C@H]3c2ccc(Cl)o2)n1 (single isomer, unassigned) [Example 17, 10-(5-chlorofuran-2-yl)-8-(hydroxymethyl)-1,3-dimethyl-5-(4-methylthiazol-2-yl)-7,8-dihydro-1H-pyrimido[4′,5′:3,4]pyrrolo[2,1-c][1,4]thiazine-2,4(3H,10H)-dione] | 0.1 µM

Other lines, results leading:

IC50 | Structure (SMILES)
0.15 µM | Cn1c(=O)c2c(-c3cccc(F)c3)n3c(c2n(C)c1=O)[C@H](c1nc(Cl)cs1)C[C@@H]3CO [Example 27a, (7R,9R)-9-(4-chlorothiazol-2-yl)-5-(3-fluorophenyl)-7-(hydroxymethyl)-1,3-dimethyl-8,9-dihydro-1H-pyrimido[4,5-a]pyrrolizine-2,4(3H,7H)-dione]
0.15 µM | Cc1csc(-c2c3c(=O)n(C)c(=O)n(C)c3c3n2C[C@H](CNS(C)(=O)=O)S[C@H]3c2ccc(Cl)o2)n1 (single isomer, unassigned) [Example 26a, N-((10-(5-chlorofuran-2-yl)-1,3-dimethyl-5-(4-methylthiazol-2-yl)-2,4-dioxo-2,3,4,7,8,10-hexahydro-1H-pyrimido[4′,5′:3,4]pyrrolo[2,1-c][1,4]thiazin-8-yl)methyl)methanesulfonamide]
0.29 µM | Cc1cccc(-c2c3c(=O)n(C)c(=O)n(C)c3c3n2CCCC3c2nc(C)cs2)c1 (single isomer, unassigned) [Example 8.2, 1,3-dimethyl-10-(4-methylthiazol-2-yl)-5-m-tolyl-7,8,9,10-tetrahydropyrimido[4,5-a]indolizine-2,4(1H,3H)-dione]
0.16 µM | Cc1csc(-c2c3c(=O)n(C)c(=O)n(C)c3c3n2C[C@@H](CN2CCOC2=O)S[C@@H]3c2ccc(Cl)o2)n1 (single isomer, unassigned) [Example 30a, 10-(5-chlorofuran-2-yl)-1,3-dimethyl-5-(4-methylthiazol-2-yl)-8-((2-oxooxazolidin-3-yl)methyl)-7,8-dihydro-1H-pyrimido[4′,5′:3,4]pyrrolo[2,1-c][1,4]thiazine-2,4(3H,10H)-dione]
0.7 µM | Cc1csc(C2CCNn3c(-c4cccc(Cl)c4)c4c(=O)n(C)c(=O)n(C)c4c32)n1 (racemic) [Example 10.2, 5-(3-Chlorophenyl)-1,3-dimethyl-10-(4-methylthiazol-2-yl)-7,8,9,10-tetrahydropyrimido[4′,5′:3,4]pyrrolo[1,2-b]pyridazine-2,4(1H,3H)-dione]
